Measured values as given in patent US20100310561A1, “NATRIURETIC FUSION PROTEINS” (BOEHRINGER INGELHEIM INTERNATIONAL GMBH, priority 2007, published 2010).
Like-named read-outs stand apart in the source and are kept apart here. One block for each compound: values may come before it.

Tests used:
[1] = humans; Potter et al.; cited from earlier work
Dog NPRA = assay: cGMP assay, canine NPRA expressing 293 cells; format: cell-based
Experimental: (§1) Natriuretic peptides of >95% HPLC purity were obtained from Sigma. HEK293 NPRA cells grown to 90% confluence were harvested using HANKS based Cell Dissociation Medium (GIBCO). Cells were washed and resuspended at 3.3×10^5 cells per mL in pre warmed Dulbecco's PBS, pH 7.4, 25 mM HEPES, 0.1% BSA, 500 μM 3-Isobutyl-1-methylxanthine (IBMX) [Assay Buffer]. Assays were performed in Optiplate-96 White Opaque 96-well Microplates (Perkin Elmer). 15 μL of cell suspension is added to 15 μL of 2× fusion protein in Assay Buffer in triplicate and incubated for 20 minutes at 37° C. The cGMP concentration was measured using the HitHunter™ cGMP Assay Kit (DiscoveRx Corporation). cGMP production dose response curves were generated with a four parameter logistic equation fitted using the Levenburg Marquardt algorithm in XLfit4.2 data analysis software (ID Business Solutions, Ltd.).
Human ANP28 peptide was assayed for cGMP production in species specific NPRA transfected 293 or 293T cells. Dose response curves for cGMP production stimulated by human ANP28 peptide in rat NPRA (rNPRA) expressing 293T cells and human NPRA (hNPRA) and canine NPRA (caNPRA) expressing 293 cells are shown in FIG. 2.
The selectivity of the recombinant ANP-Fc fusion proteins was assessed by analyzing their efficacy in NPRB expressing cell lines. […]

Monkey NPRA = assay: cGMP assay, monkey NPRA expressing HEK293 cells; format: cell-based; details: Table 4
Experimental: as §1
The selectivity of the recombinant ANP-Fc fusion proteins was assessed by analyzing their efficacy in NPRB expressing cell lines. The species cross-reactivity of the ANP-Fc fusion proteins was tested in rat, canine, and monkey NPRA expressing HEK293 cell lines. The ANP-Fc fusions tested have good cross-reactivity in the rat, canine, and monkey NPRA mediated cGMP assays (Table 4). The ANP-Fc fusion proteins have nearly equivalent dose response values when tested in human, dog and monkey expressing NPRA cells. […]

human NPRA = biological target: T1, human NPRA (Homo sapiens, UniProt P16066); assay: Natriuretic peptide fusion protein induced cGMP assay, human NPRA transfected HEK293 cells; format: cell-based
T1 sequence (P16066 33-1061): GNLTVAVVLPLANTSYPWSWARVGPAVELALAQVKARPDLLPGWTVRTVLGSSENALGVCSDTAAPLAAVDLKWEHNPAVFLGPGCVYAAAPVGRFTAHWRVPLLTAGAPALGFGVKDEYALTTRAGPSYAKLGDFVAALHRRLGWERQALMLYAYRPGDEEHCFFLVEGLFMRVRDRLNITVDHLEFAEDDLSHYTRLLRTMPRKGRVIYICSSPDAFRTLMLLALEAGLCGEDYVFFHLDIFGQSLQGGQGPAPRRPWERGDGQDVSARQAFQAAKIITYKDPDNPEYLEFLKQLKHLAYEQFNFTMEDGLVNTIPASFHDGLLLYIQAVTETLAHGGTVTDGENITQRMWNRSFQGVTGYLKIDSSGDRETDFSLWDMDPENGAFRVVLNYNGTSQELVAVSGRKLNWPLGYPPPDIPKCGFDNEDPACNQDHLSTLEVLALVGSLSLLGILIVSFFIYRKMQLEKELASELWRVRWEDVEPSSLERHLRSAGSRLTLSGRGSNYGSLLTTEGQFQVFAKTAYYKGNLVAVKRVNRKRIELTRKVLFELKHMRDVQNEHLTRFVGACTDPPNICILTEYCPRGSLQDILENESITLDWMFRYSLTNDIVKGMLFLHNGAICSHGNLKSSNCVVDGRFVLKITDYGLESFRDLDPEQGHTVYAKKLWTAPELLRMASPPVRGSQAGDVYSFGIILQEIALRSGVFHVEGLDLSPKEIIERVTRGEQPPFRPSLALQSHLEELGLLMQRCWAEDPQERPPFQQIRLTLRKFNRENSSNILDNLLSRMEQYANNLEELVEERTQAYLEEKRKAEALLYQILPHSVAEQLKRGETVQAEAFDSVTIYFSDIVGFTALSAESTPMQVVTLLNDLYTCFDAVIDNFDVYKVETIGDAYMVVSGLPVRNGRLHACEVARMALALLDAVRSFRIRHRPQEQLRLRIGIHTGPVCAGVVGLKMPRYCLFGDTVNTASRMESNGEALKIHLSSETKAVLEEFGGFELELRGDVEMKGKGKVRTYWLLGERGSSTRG
Text: Full-length human NPRA, human NPRB, and human […] (NPRC) sequence containing plasmids were purchased from OriGene Technologies, Inc. (Rockville, Md.) then sub-cloned into pcDNA3.1 directional mammalian expression vector (Invitrogen). Insert orientation and nucleotide sequence of each construct was verified by an outside vendor (SeqWright, Inc.). The pcDNA3.1 NPR clones were transfected using Lipofectamine (Invitrogen) into HEK293 cells where stable cell lines expressing human NPRA, human NPRB, or human NPRC are selected using G418. Clones were screened using the natriuretic peptide induced cGMP assay described below. (NPRA clones were treated with human ANP while NPRB clones were treated with human CNP (Sigma)). High cGMP producing clones were expanded. NPRC clones were screened using a ^125I ANP binding assay. ^125I ANP high binders were expanded. […]
Natriuretic peptides of >95% HPLC purity were obtained from Sigma. […] The cGMP concentration was measured using the HitHunter™ cGMP Assay Kit (DiscoveRx Corporation). cGMP production dose response curves were generated with a four parameter logistic equation fitted using the Levenburg Marquardt algorithm in XLfit4.2 data analysis software (ID Business Solutions, Ltd.).
Results 1 from both Labs 1 and 2 were generated by interpreting the raw Relative Luminescence Units (RLU). […]

Compound: BNP: B-type natriuretic peptide
plasma half life [1]: approximately 20 minutes

EC50 (Dog NPRA; Table 4, read-out: cGMP EC50 (nM) Dog NPRA): 1.3 nM
EC50 (Dog NPRA; caNPRA 293 cells, read-out: Mean EC50 nM, cGMP-caNPRA 293): 1.34 nM
EC50 (Monkey NPRA): 0.5 nM
Compound: CC[C@H](C)[C@@H]1NC(=O)[C@H](CCCNC(=N)N)NC(=O)[C@H](CC(=O)O)NC(=O)[C@H](CCSC)NC(=O)[C@H](CCCNC(=N)N)NC(=O)CNC(=O)CNC(=O)[C@H](Cc2ccccc2)NC(=O)[C@@H](NC(=O)[C@H](CO)NC(=O)[C@H](CO)NC(=O)[C@H](CCCNC(=N)N)NC(=O)[C@H](CCCNC(=N)N)NC(=O)[C@H](CC(C)C)NC(=O)[C@@H](N)CO)CSSC[C@@H](C(=O)N[C@@H](CC(N)=O)C(=O)N[C@@H](CO)C(=O)N[C@@H](Cc2ccccc2)C(=O)N[C@@H](CCCNC(=N)N)C(=O)N[C@@H](Cc2ccc(O)cc2)C(=O)O)NC(=O)CNC(=O)[C@H](CC(C)C)NC(=O)CNC(=O)[C@H](CO)NC(=O)[C@H](CCC(N)=O)NC(=O)[C@H](C)NC(=O)CNC1=O [Construct 1, ANPXY]

Compound: Wild-type rat ANP: rat atrial natriuretic peptide, differs from human ANP by one amino acid (SLRRSSCFGGRIDRIGAQSGLGCNSFRY) [reference compound]
EC50 compared with human ANP in the human NPRA cGMP assay (human NPRA): slightly higher
